Experimental data as given in patent publication US6914045B2, “Glycopeptide antibiotics” (Wyeth Holdings Corporation, priority 2001, dated 2005).
≈ marks a conversion by molar mass, not a printed value.

Key:
Assay in all cases: in vitro antibacterial evaluation, MIC by broth dilution
Format in all cases: cell-based
[1] = test system: Escherichia coli; conditions: 18 hours at 35° C.
[2] = test system: Staphylococcus sp.; conditions: broth dilution, 18 hours at 35° C.
Summary of the method: (§1)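 MIC, the lowest antibiotic concentration preventing growth, was read across 64-0.06 μg/mL with 5×10^5 CFU/mL inoculum. Method followed NCCLS M7-A2 broth dilution using Mueller-Hinton II; Gram-positive strains covered recent methicillin-, penicillin- and/or vancomycin-resistant clinical isolates.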

[3] = test system: Enterococcus sp.; conditions: broth dilution, 18 hours at 35° C.
Summary of the method: as §1

[4] = test system: Streptococcus sp.; conditions: broth dilution, 18 hours at 35° C.
Summary of the method: as §1

MIC Escherichia coli (ATCC 25922) [1]: >64 µg/mL
MIC Escherichia coli (GC 4559) [1]: >64 µg/mL
MIC Escherichia coli (GC 4560) [1]: 1 µg/mL (≈ 0.677 µM)
MIC Coagulase Negative Staphylococcus (GC 4547) [2]: 2 µg/mL (≈ 1.35 µM)
MIC Coagulase Negative Staphylococcus (GC 4548) [2]: 0.5 µg/mL (≈ 0.338 µM)
MIC Coagulase Negative Staphylococcus (GC 4549) [2]: 0.5 µg/mL (≈ 0.338 µM)
MIC Coagulase Negative Staphylococcus (GC 4551) [2]: 2 µg/mL (≈ 1.35 µM)
MIC Coagulase Negative Staphylococcus (GC 6257) [2]: 1 µg/mL (≈ 0.677 µM)
MIC Staphylococcus aureus (ATCC 29213) [2]: 2 µg/mL (≈ 1.35 µM)
MIC Staphylococcus aureus (GC 1131) [2]: 2 µg/mL (≈ 1.35 µM)
MIC Staphylococcus aureus (GC 3051) [2]: 2 µg/mL (≈ 1.35 µM)
MIC Staphylococcus aureus (GC 3053) [2]: 2 µg/mL (≈ 1.35 µM)
MIC Staphylococcus aureus (GC 4541) [2]: 2 µg/mL (≈ 1.35 µM)
MIC Staphylococcus aureus (GC 4542) [2]: 4 µg/mL (≈ 2.71 µM)
MIC Staphylococcus aureus (GC 4544) [2]: 2 µg/mL (≈ 1.35 µM)
MIC Staphylococcus aureus (GC 4545) [2]: 2 µg/mL (≈ 1.35 µM)
MIC Staphylococcus aureus-SMITH (GC 4543) [2]: 2 µg/mL (≈ 1.35 µM)
MIC Staphylococcus aureus (ATCC 29213) ([2]; strain ATCC 29213): 2 µg/mL (≈ 1.35 µM)
MIC Staphylococcus aureus (GC 1131) ([2]; strain GC 1131): 2 µg/mL (≈ 1.35 µM)
MIC Staphylococcus aureus (GC 3051) ([2]; strain GC 3051): 2 µg/mL (≈ 1.35 µM)
MIC Staphylococcus aureus (GC 3053) ([2]; strain GC 3053): 2 µg/mL (≈ 1.35 µM)
MIC Staphylococcus aureus (GC 4541) ([2]; strain GC 4541): 2 µg/mL (≈ 1.35 µM)
MIC Staphylococcus aureus (GC 4542) ([2]; strain GC 4542): 4 µg/mL (≈ 2.71 µM)
MIC Staphylococcus aureus-SMITH (GC 4543) ([2]; strain GC 4543): 2 µg/mL (≈ 1.35 µM)
MIC Staphylococcus aureus (GC 4544) ([2]; strain GC 4544): 2 µg/mL (≈ 1.35 µM)
MIC Staphylococcus aureus (GC 4545) ([2]; strain GC 4545): 2 µg/mL (≈ 1.35 µM)
MIC Coagulase Negative Staphylococcus (GC 4547) ([2]; strain GC 4547): 2 µg/mL (≈ 1.35 µM)
MIC Coagulase Negative Staphylococcus (GC 4548) ([2]; strain GC 4548): 0.5 µg/mL (≈ 0.338 µM)
MIC Coagulase Negative Staphylococcus (GC 4549) ([2]; strain GC 4549): 0.5 µg/mL (≈ 0.338 µM)
MIC Coagulase Negative Staphylococcus (GC 4551) ([2]; strain GC 4551): 2 µg/mL (≈ 1.35 µM)
MIC Coagulase Negative Staphylococcus (GC 6257) ([2]; strain GC 6257): 1 µg/mL (≈ 0.677 µM)
MIC Enterococcus avium (GC 4558) [3]: 2 µg/mL (≈ 1.35 µM)
MIC Enterococcus faecalis (ATCC 29212) [3]: 4 µg/mL (≈ 2.71 µM)
MIC Enterococcus faecalis (GC 2242) [3]: 4 µg/mL (≈ 2.71 µM)
MIC Enterococcus faecalis (GC 2691) [3]: 2 µg/mL (≈ 1.35 µM)
MIC Enterococcus faecalis (GC 3059) [3]: 2 µg/mL (≈ 1.35 µM)
MIC Enterococcus faecalis (GC 4552) [3]: 4 µg/mL (≈ 2.71 µM)
MIC Enterococcus faecalis (GC 4553) [3]: 4 µg/mL (≈ 2.71 µM)
MIC Enterococcus faecalis (GC 4554) [3]: 4 µg/mL (≈ 2.71 µM)
MIC Enterococcus faecalis (GC 6189) [3]: 2 µg/mL (≈ 1.35 µM)
MIC Enterococcus faecium (GC 2243) [3]: 4 µg/mL (≈ 2.71 µM)
MIC Enterococcus faecium (GC 4556) [3]: 4 µg/mL (≈ 2.71 µM)
MIC Enterococcus faecium (GC 4557) [3]: 2 µg/mL (≈ 1.35 µM)
MIC Enterococcus faecalis (ATCC 29212) ([3]; strain ATCC 29212): 4 µg/mL (≈ 2.71 µM)
MIC Enterococcus faecium (GC 2243) ([3]; strain GC 2243): 4 µg/mL (≈ 2.71 µM)
MIC Enterococcus faecalis (GC 4552) ([3]; strain GC 4552): 4 µg/mL (≈ 2.71 µM)
MIC Enterococcus faecalis (GC 4553) ([3]; strain GC 4553): 4 µg/mL (≈ 2.71 µM)
MIC Enterococcus faecalis (GC 4554) ([3]; strain GC 4554): 4 µg/mL (≈ 2.71 µM)
MIC Enterococcus faecium (GC 4556) ([3]; strain GC 4556): 4 µg/mL (≈ 2.71 µM)
MIC Enterococcus faecium (GC 4557) ([3]; strain GC 4557): 2 µg/mL (≈ 1.35 µM)
MIC Enterococcus avium (GC 4558) ([3]; strain GC 4558): 2 µg/mL (≈ 1.35 µM)
MIC Enterococcus faecalis (GC 6189) ([3]; strain GC 6189): 2 µg/mL (≈ 1.35 µM)
MIC Enterococcus faecalis (GC 2242) ([3]; inoculum 5×10^5 CFU/mL, strain GC 2242): 4 µg/mL (≈ 2.71 µM)
MIC Enterococcus faecalis (GC 2691) ([3]; inoculum 5×10^5 CFU/mL, strain GC 2691): 2 µg/mL (≈ 1.35 µM)
MIC Enterococcus faecalis (GC 3059) ([3]; inoculum 5×10^5 CFU/mL, strain GC 3059): 2 µg/mL (≈ 1.35 µM)
MIC Streptococcus agalactiae (GC 4564) [4]: 0.12 µg/mL (≈ 0.0812 µM)
MIC Streptococcus pneumoniae (ATCC 6301) [4]: <0.06 µg/mL
MIC Streptococcus pneumoniae (GC 1894) [4]: <0.06 µg/mL
MIC Streptococcus pneumoniae (GC 4565) [4]: <0.06 µg/mL
MIC Streptococcus pyogenes (GC 4563) [4]: <0.06 µg/mL
MIC Streptococcus pneumoniae (ATCC 6301) ([4]; inoculum 5×10^5 CFU/mL, strain ATCC 6301): <0.06 µg/mL
MIC Streptococcus pneumoniae (GC 1894) ([4]; inoculum 5×10^5 CFU/mL, strain GC 1894): <0.06 µg/mL
MIC Streptococcus pyogenes (GC 4563) ([4]; inoculum 5×10^5 CFU/mL, strain GC 4563): <0.06 µg/mL
MIC Streptococcus agalactiae (GC 4564) ([4]; inoculum 5×10^5 CFU/mL, strain GC 4564): 0.12 µg/mL (≈ 0.0812 µM)
MIC Streptococcus pneumoniae (GC 4565) ([4]; inoculum 5×10^5 CFU/mL, strain GC 4565): <0.06 µg/mL
Structure (SMILES): CC(c1ccccc1)C1NC(=O)CNC(=O)C(CO)NC(=O)C(C(O)C2CNC(=N)N2C2OC(CO)C(O)C(O)C2O)NC(=O)C(C(O)C2CNC(=N)N2)NC(=O)C(Cc2ccc(OC3OC(CO)C(OC4OC(COCc5ccc(Oc6ccccc6)cc5)C(O)C(O)C4O)C(O)C3O)cc2)NC1=O (stereo not shown) [Example 236]
MIC Staphylococcus haemolyticus (GC 4546) [2]: 2 µg/mL (≈ 1.35 µM)
MIC Staphylococcus haemolyticus (GC 4546) ([2]; strain GC 4546): 2 µg/mL (≈ 1.35 µM)
